Test results as given in ChEMBL document CHEMBL4622845, “p62/SQSTM1, a Central but Unexploited Target: Advances in Its Physiological/Pathogenic Functions and Small Molecular Modulators” (J Med Chem, 2020).
Where a name gives a salt, the structure may show the parent alone. One block for each molecule: values may come before it.

How the values were obtained:
[1] = Cytotoxicity against RSL3 resistance human HN3 cells assessed as reduction in cell viability; type: functional, cell-based
[2] = molecular target: T1, Phosphatidylinositol 3-kinase catalytic subunit type 3 (Homo sapiens, UniProt Q8NEB9); test: Inhibition of Vps34 (unknown origin) interaction with PIK3 assessed as reduction in autophagy by increasing LC3 level
[3] = molecular target: T1, Phosphatidylinositol 3-kinase catalytic subunit type 3; test: Inhibition of Vps34 (unknown origin)
[4] = molecular target: T1, Phosphatidylinositol 3-kinase catalytic subunit type 3; test: Inhibition of Vps34 in human MCF7-LC3 cells; type: cell-based
[5] = Antitumor activity against human multiple myeloma cells; type: functional
[6] = molecular target: Serine/threonine-protein kinase mTOR (Homo sapiens, UniProt P42345); test: Inhibition of mTOR in HEK293 cells; type: cell-based
[7] = molecular target: T2, DNA polymerase alpha catalytic subunit (Homo sapiens, UniProt P09884); test: Inhibition of human DNA polymerase-alpha (unknown origin)
T2 sequence (P09884 whole entry): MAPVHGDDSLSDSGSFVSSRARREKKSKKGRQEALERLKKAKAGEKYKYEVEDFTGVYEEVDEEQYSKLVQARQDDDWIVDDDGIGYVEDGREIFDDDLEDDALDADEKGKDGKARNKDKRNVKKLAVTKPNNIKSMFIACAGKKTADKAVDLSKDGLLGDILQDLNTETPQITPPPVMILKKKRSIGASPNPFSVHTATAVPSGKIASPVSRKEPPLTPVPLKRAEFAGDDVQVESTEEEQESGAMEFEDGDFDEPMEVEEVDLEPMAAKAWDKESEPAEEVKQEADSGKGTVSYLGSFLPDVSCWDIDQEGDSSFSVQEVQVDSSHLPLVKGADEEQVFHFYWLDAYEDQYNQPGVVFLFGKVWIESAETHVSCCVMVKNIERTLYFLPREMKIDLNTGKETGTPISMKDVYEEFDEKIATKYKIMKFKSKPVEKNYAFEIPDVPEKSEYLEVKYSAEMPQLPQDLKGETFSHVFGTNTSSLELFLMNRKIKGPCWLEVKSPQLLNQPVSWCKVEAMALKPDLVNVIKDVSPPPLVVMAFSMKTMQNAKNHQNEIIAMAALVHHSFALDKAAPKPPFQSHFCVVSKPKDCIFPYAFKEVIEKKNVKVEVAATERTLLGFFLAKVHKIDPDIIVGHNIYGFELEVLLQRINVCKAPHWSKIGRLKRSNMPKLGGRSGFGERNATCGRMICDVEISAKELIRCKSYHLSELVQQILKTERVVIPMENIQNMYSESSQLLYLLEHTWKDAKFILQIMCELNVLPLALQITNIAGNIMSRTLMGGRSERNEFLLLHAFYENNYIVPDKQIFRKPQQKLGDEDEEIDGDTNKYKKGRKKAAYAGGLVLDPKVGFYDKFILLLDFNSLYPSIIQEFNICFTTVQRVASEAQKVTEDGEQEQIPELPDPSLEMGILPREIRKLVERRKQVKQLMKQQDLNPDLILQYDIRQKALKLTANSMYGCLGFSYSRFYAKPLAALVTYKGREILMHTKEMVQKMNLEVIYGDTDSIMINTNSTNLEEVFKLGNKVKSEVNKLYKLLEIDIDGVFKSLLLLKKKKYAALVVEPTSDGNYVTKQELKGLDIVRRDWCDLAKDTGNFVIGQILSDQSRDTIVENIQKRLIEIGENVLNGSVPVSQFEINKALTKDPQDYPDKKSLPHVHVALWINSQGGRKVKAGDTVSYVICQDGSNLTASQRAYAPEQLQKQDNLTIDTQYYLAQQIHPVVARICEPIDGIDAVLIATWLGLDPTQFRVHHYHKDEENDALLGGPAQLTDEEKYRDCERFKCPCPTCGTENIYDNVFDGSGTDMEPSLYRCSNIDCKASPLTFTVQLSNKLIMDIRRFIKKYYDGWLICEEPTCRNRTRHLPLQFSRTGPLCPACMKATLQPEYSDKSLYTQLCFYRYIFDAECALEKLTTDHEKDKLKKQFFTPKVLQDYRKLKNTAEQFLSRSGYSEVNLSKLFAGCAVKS

CYP450 = CYP450 (Homo sapiens, UniProt P04798+P05177+P05181+P08684+P10632+P10635+P11509+P11712+P13584+P20813+P20815+P20853+P24462+P24903+P33260+P33261+P51589+P78329+P98187+Q02928+Q08477+Q16678+Q16696+Q5TCH4+Q6VVX0+Q7Z449+Q8TAV3+Q96SQ9+Q9HB55); test: Inhibition of CYP450 (unknown origin); type: ADME, protein assay
NSCLC = test: Anticancer activity against human NSCLC cells; type: functional, cell-based
[8] = molecular target: T3, UDP-glucuronosyltransferase 1A1 (Homo sapiens, UniProt P22309); test: Induction of UGT1A1 (unknown origin) assessed as increase in intracellular acidic autophagy vesicles formation; type: ADME, cell-based
T3 sequence (P22309 whole entry): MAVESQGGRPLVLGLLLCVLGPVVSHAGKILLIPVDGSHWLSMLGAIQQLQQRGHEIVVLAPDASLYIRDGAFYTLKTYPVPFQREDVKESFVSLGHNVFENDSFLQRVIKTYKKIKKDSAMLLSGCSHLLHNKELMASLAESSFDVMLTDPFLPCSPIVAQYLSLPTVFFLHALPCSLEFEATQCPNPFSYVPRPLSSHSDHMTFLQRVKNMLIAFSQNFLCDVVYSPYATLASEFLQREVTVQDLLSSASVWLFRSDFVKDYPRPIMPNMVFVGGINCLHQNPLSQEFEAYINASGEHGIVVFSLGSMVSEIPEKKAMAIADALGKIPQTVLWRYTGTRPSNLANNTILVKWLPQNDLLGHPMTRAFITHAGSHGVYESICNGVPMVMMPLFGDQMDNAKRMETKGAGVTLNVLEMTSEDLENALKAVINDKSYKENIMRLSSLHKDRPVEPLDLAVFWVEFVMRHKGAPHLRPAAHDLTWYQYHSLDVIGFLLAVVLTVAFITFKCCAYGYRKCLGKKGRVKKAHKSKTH

T1 sequence (Q8NEB9 whole entry): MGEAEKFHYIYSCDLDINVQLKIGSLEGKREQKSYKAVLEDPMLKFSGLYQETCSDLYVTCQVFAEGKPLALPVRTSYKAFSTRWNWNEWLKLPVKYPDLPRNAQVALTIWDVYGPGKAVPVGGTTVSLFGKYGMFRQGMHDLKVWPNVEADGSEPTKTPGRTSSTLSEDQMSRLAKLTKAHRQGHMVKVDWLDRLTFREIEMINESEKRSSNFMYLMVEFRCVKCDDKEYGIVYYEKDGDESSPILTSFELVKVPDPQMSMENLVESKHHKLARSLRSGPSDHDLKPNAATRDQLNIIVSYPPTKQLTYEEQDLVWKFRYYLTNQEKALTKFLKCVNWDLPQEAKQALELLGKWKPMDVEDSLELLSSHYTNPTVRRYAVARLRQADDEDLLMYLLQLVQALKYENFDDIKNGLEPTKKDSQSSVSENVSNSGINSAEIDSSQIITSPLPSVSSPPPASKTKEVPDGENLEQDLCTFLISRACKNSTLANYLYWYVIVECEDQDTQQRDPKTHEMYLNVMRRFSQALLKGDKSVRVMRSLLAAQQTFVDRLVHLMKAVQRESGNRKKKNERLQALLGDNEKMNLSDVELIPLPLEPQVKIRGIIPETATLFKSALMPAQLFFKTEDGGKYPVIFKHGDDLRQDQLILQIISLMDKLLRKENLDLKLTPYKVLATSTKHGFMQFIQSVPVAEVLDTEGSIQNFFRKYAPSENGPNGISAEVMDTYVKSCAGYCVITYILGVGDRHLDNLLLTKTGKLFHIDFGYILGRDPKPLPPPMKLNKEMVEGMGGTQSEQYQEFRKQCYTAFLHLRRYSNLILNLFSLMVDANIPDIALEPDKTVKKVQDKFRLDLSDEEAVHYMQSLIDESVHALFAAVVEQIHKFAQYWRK

Compound: COc1ccc(N(C(=O)CCl)C(C(=O)NCCc2ccccc2)c2cccs2)cc1Cl (stereo not given)
IC50 [1]: 5800 nM | IC50 [2]: 18 nM | IC50 [3]: 25 nM

IC50 [4]: 19 nM
Compound: Cc1cc(Nc2cc(Cl)nc(Oc3ccc([N+](=O)[O-])cc3)n2)n[nH]1

Compound: OCCNCc1ccc(OCc2ccc(F)cc2)c(OCc2ccc(F)cc2)c1
IC50 [5]: 4600 nM

IC50 [6]: 5 to 6 nM
Compound: CO[C@H]1C[C@@H]2CC[C@@H](C)[C@@](O)(O2)C(=O)C(=O)N2CCCC[C@H]2C(=O)O[C@H]([C@H](C)C[C@@H]2CC[C@@H](OCCO)[C@H](OC)C2)CC(=O)[C@H](C)/C=C(\C)[C@@H](O)[C@@H](OC)C(=O)[C@H](C)C[C@H](C)/C=C/C=C/C=C/1C [EVEROLIMUS]

IC50 [7]: 3300 nM
Compound: Oc1ccc(/C=C/c2cc(O)cc(O)c2)cc1 [RESVERATROL]

IC50 (CYP450): 19000 nM
Compound: CCCC(C(=O)OCCN(CC)CC)(c1ccccc1)c1ccccc1 [PROADIFEN HYDROCHLORIDE]

Compound: COc1ccc(S(=O)(=O)Nc2cccnc2Nc2ccc(O)cc2)cc1 [ABT-751]
IC50 (NSCLC): 1500 nM

IC50 [8]: 970 nM
Compound: C=CC(C)(C)c1cc(/C=C/C(=O)c2ccc(O)cc2)c(OC)cc1O [LICOAGROCHACONE A]
